Assay results as given in patent US20260062449A1, “PEPTIDE COMPOSITIONS AND METHODS OF USE” (ONL Therapeutics, Inc., priority 2022, published 2026).
No end group written: not given here.

Tested on: Jurkat cells
Test: Cell viability preservation in vitro: cell confluence of Jurkat cells after 24-hour incubation with FasL
Format: cell-based
Details: recombinant His-tagged FasL along with anti-His antibody
Procedure: Compounds (oligopeptides) of the present disclosure were assayed for their ability to effect cell confluence following a 24-hour incubation. Jurkat cells were incubated for 24 hours with varying concentrations of compound (i.e., 200, 66.7, 22.2, 7.4, 2.5, 0.8, 0.3, and 0.1) and with or without recombinant His-tagged FasL along with an anti-His antibody. After the 24-hour incubation, cell confluence was quantified using an S3 Incucyte Imaging System (Sartorius) and a Vi-CELL XR Cell Viability Analyzer (Beckman Coulter) and compared to controls (cells incubated in the absence of compound and cells incubated with a known Fas inhibitor).
With “HHIYLGAVNYIY-NH2 [Compound A, reference compound]” the “Activity: lowest concentration that prevented loss of cell confluency” value was “A (cell protection at x < 1.0 μM)”. With “NH2-HHIAAGAVNYIY-C(O)NH2 (H-HHIAAGAVNYIY-NH2) [Compound 6]” the “Activity: lowest concentration that prevented loss of cell confluency” value was “B (cell protection at 1.0 < x < 10.0 μM)”. For “NH2-HHIYLGGGGGNYIY-C(O)NH2 (H-HHIYLGGGGGNYIY-NH2) [Compound 7]”, the “Activity: lowest concentration that prevented loss of cell confluency” value was “B (cell protection at 1.0 < x < 10.0 μM)”. With “NH2-HHIYLGSSSSNYIY-C(O)NH2 (H-HHIYLGSSSSNYIY-NH2) [Compound 8]” the “Activity: lowest concentration that prevented loss of cell confluency” value was “B (cell protection at 1.0 < x < 10.0 μM)”. With “NH2-HKIYLGAVNYIY-C(O)NH2 (H-HKIYLGAVNYIY-NH2) [Compound 11]” the “Activity: lowest concentration that prevented loss of cell confluency” value was “B (cell protection at 1.0 < x < 10.0 μM)”. In the case of “NH2-KHIYLGAVNYIY-C(O)NH2 (H-KHIYLGAVNYIY-NH2) [Compound 10]”, the “Activity: lowest concentration that prevented loss of cell confluency” value is reported as “A (cell protection at x < 1.0 μM)”. In the case of “NH2-KKIYLGAVNYIY-C(O)NH2 (H-KKIYLGAVNYIY-NH2) [Compound 9]”, the “Activity: lowest concentration that prevented loss of cell confluency” value is reported as “B (cell protection at 1.0 < x < 10.0 μM)”.

Tested on: not listed separately
Test: Aqueous solubility / solution behaviour of Met-12
Format: physicochemical
Details: not given
Excerpt: Experiments have clearly shown that Met-12 has to be dosed as a solution, both in vitro and in vivo, to show optimal activity, and producing such solutions in a largely aqueous medium has proven to be very difficult, especially under conditions which are acceptable for intravitreal injection. Dosing of suspensions or gels of Met-12 leads to major losses of potency. […] Despite extensive development work, the only solution formulations of Met-12 which have been found involve some very low pH solution injections (≤pH 2.8) or neat DMSO injections, all of which are suboptimal for intravitreal injections.
For “HHIYLGAVNYIY [Met-12, H^60HIYLGAVNYIY^71]”, the aqueous solubility was “extremely poor aqueous solubility”.

Same assay, conditions: apparently clear 10 rang/mL solution in 20 mM citrate buffer pH 2.8
With “HHIYLGAVNYIY [Met-12, H^60HIYLGAVNYIY^71]” the “loss of material upon filtration” value was “considerable loss of material upon filtration”.
